Results from patent US20240000831A1, “MOLECULAR BASIS OF FATTY LIVER INHIBITION BY SODIUM BORATES” (YEDITEPE UNIVERSITESI, priority 2020, published 2024).
Like-named read-outs stand apart in the source and are kept apart here.

Experiments:
[1] = cited from earlier work
[2] = tested on: non-alcoholic fatty liver pathway genes in healthy human cells; assay: Microarray experiment: gene expression related to fatty liver; type: cell-based; details: healthy human cells treated for 3 days; ADIPOR2, PRKAG2, IRS1, PIK3R1, NFKB1, MAP3K11, BID, CYCS, BAX, CASP3, TGFB1
Procedure: All changes in the level of gene expression related to fatty liver in healthy human cells were determined by this method upon being treated with sodium borates for 3 days. It was determined how these genes affect the pathway related to fatty liver. As a result of the microarray experiment, it is understood that the expression level of many genes in the non-alcoholic fatty liver pathway decreased by 2 times and more, and fatty liver was prevented as the pathway lost its function substantially. Genes, whose expression was reduced, were ADIPOR2, PRKAG2, IRS1, PIK3R1, NFKB1, MAP3K11, BID, CYCS, BAX, CASP3 and TGFB1 (FIG. 1). In our in vivo study, it has been proven on animals that fatty liver was inhibited as a result of the failure of this pathway.

[3] = Toxicology studies in rats adapted to humans; type: in vivo; details: daily dose of 500 mg, rat toxicology studies adapted to humans
Procedure: Today, there is no specific drug for direct treatment of fatty liver. […] It is known that boron homeostasis taken into mammalian systems is excreted via urine within 72 hours. Boron also regulates calcium, potassium and magnesium metabolisms in the body.

[4] = tested on: fatty liver caused by high-fat diet in balb/c mice; assay: In vivo experiment: liver weight of high-fat diet mice; details: YYD supplemented with 1.5 mg/g SB, 10 weeks, female balb/c mice
Procedure: (§1) 8-weeks-old female 24 balb/c mice were used for the in vivo experiment. The adaptation process was completed in cages in a temperature-controlled room with a 12-hour light/dark cycle. Then, the mice were divided into four different dietary groups (n=6 for each group): normal diet (2.70 kcal/g), high-fat diet (YYD) (4.00 kcal/g), YYD supplemented with 0.5 mg/g SB, and YYD supplemented with 1.5 mg/g SB. At the end of 10 weeks, mice were sacrificed and weights of their livers were measured. At the end of 10 weeks, the livers of the mice were removed and weighed, and it was observed that fatty liver caused by high-fat diet was inhibited by the use of 1.5 mg/g SB as a supplement (FIG. 2A).

[5] = tested on: pathological disorders in the liver caused by high-fat diet in balb/c mice; assay: Histological evaluation of liver tissue (hematoxylin-eosin staining scores); type: in vivo; details: for hematoxylin-eosin staining technique score (Mean ± SD): 10 weeks, n = 6, YYD alone 12.6 ± 1.54, control 1.60 ± 1.14
Procedure: as §1
Liver tissues of mice were prepared for histological evaluation. These tissue samples were immersed in 10% neutral formaldehyde prepared with 0.1 M phosphate buffer (pH 7.4) for fixation at 4° C. Subsequently, the samples were rinsed in tap water for 12 hours, then dehydrated in an alcohol batch and embedded in paraffin. From samples embedded in paraffin, 5 micron thick samples were obtained using a rotary microtome (Leica RM 2245 model; Leica Instruments, Germany). All tissue sections were taken onto poly-L-lysine coated slides. All these samples were stained with hematoxylin eosin staining technique and imaged under a light microscope (Leica DM6000B). […] This method has been used to evaluate the situation of pathological deteriorations caused by high fat diet when different sodium boron administrations are applied and when not applied.

Molecule | time to excretion via urine ([1]; mammalian systems) [h] | side effects ([1]; up to 18 mg of boron daily in adults) | decrease in expression levels of genes in the non-alcoholic fatty liver pathway [2] [times] | side effects [3] | fatty liver caused by high-fat diet (liver weight) [4] | hematoxylin-eosin staining technique score (Mean ± SD) ([5]; YYD + 0.5 mg SB/g VA) | hematoxylin-eosin staining technique score (Mean ± SD) ([5]; YYD + 1.5 mg SB/g VA) | hematoxylin-eosin staining technique score (Mean ± SD) ([5]; YYD + 1.5 mg SB/g VA, listed as sodium borate) | pathological disorders caused by high-fat diet (histological evaluation) ([5]; both doses (0.5 and 1.5 mg/g), liver tissue)
[B] [boron] | ≤ 72 | does not cause any side effects |  |  |  |  |  |  | 
sodium borate [SB] |  |  | ≥ 2 | no side effects | inhibited | 8.6±1.14 | 3.6 ± 0.89 | 3.6±0.89 | decreased the pathological disorders
